Laboratory results reported in patent US20200095296A1, “USE OF PEPTIDES AS BIOMARKERS IN THE DIAGNOSIS, CONFIRMATION AND TREATMENT OF A NEUROLOGICAL DISORDER AND TCR AND/OR HLA IMMUNOPROFILING IN NEURODEGENERATIVE DISEASE” (THE TRUSTEES OF COLUMBIA UNIVERSITY IN THE CITY OF NEW YORK, priority 2017, published 2020).
Where no end group is shown, it is not given here. [ ]: non-standard residue; d: D form. pT = C[C@@H](OP(=O)(O)O)[C@H](N)C(=O)O; pS = N[C@@H](COP(=O)(O)O)C(=O)O

Test system: PBMC
Assay: IFNg/IL-5 dual ELISPOT after 14 day in vitro stimulation of PBMC with Tau peptides
Format: cell-based, human
Conditions: for PD % of Total Responders / PD Total SFC / PD Total Responders: PD donors; for % of total response / Average SFC per responder / Frequency of response / Total SFC per epitope: across all cohorts; for Total Responders / Total SFC: all three cohorts (PD, HC > 50, HC < 35); for HC < 35 Total Responders / HC < 35 Total SFC: healthy controls < 35 years old
Text: It was investigated whether T cell responses against Tau were detectable in the PD and healthy control (HC) donors. To this end, a panel of overlapping peptides spanning through the entire sequence of the Tau protein was synthesized. Since it is known that the Tau protein is post-translationally modified (mainly by phosphorylation), in several instances phosphorylated peptides were also synthesized. In all, 55 non-modified 16-mers overlapping by 8 and 14 modified 16-mers were synthesized.
PD: n=16, peptides tested 14-16 times; HC above 50 years old denominated as age-matched: n=11 (9-11 times) and HC below 35 years old (HC Young): n=13 (10-13 times).
These peptides were tested utilizing the following assay strategy. Briefly, PBMC from each donor were stimulated in vitro for 14 days as described (Hinz, D., 2015) with pools of 10 to 16 peptides each. After 14 days, the T cell cultures were assayed with IFNg/IL-5 dual ELISPOT assays […]. Positive pools were deconvoluted at day 17 to identify the specific individual epitopes recognized.

[1] = healthy controls > 50 years old

| Sequence | PD/HC > 50 Ratio of % Responders | PD/HC > 50 Ratio of Response | HC > 50 % of Total Responders | HC > 50 Total SFC (HC > 50, dominant epitopes) | PD % of Total Responders | PD Total SFC (dominant epitopes) | % of total response | Average SFC per responder | Frequency of response | Total SFC per epitope | PD Total Responders | PD Total SFC | Total Responders | Total SFC | HC < 35 Total Responders | HC < 35 Total SFC | HC > 50 Total Responders [1] | HC > 50 Total SFC [1] |
| --- | --- | --- | --- | --- | --- | --- | --- | --- | --- | --- | --- | --- | --- | --- | --- | --- | --- | --- |
| HVTQARMVSKSKDGTG (listed as Homo sapiens) | 5.0 | 66.9 | 10.0% | 133 SFC | 50.0% | 8916 SFC | 4.2% | 1468 SFC | 18.9 | 14677 SFC |  |  |  |  |  |  |  |  |
| TPPTREPKKVAVVRXP |  |  |  |  |  |  |  |  |  |  | 4 | 1813 SFC | 7 | 2210 SFC | 3 | 397 SFC | 0 | 0 SFC |
| DFKDRVQSKIGSLDNI (DFKDRVQSKIG[pS]LDNI; listed as Homo sapiens) [Tau 16-mer, start 345] | 0.7 | 0.6 | 60.0% | 4330 SFC | 40.0% | 2397 SFC | 1.9% | 1345 SFC | 9.4 | 6727 SFC | 2 | 2397 SFC | 5 | 6727 SFC | 0 | 0 SFC | 3 | 4330 SFC |
| PMPDLKNVKSKIGZTE | 1.3 | 1 | 36.4% | 5168 SFC | 45.5% | 5175 SFC | 3.2% | 1006 SFC | 20.8 | 11063 SFC | 5 | 5175 SFC | 11 | 11063 SFC | 2 | 720 SFC | 4 | 5168 SFC |
| SVQIVYKPVDLSKVTS (listed as Homo sapiens) | 0.9 | 1.1 | 42.1% | 5460 SFC | 36.8% | 6203 SFC | 4.0% | 731 SFC | 35.8 | 13888 SFC |  |  |  |  |  |  |  |  |
| IKHVPGGGSVQIVYKP (listed as Homo sapiens) [Tau 16-mer, start 297] | 1.3 | 11.6 | 33.3% | 737 SFC | 44.4% | 8565 SFC | 3.4% | 1319 SFC | 17.0 | 11875 SFC |  |  |  |  |  |  |  |  |
| PAPKTPPSSGEPPKSG (PAPK[pT]PPSSGEPPKSG; listed as Homo sapiens) |  |  |  |  |  |  |  |  |  |  | 0 | 0 SFC | 1 | 107 SFC | 0 | 0 SFC | 1 | 107 SFC |
| SLEDEAAGHVTQARMV (listed as Homo sapiens) [Tau 16-mer, start 113] | 2.0 | 11 | 33.3% | 640 SFC | 66.7% | 7058 SFC | 2.2% | 1283 SFC | 11.3 | 7698 SFC |  |  |  |  |  |  |  |  |
| TPPTREPKKVAVVRTP (listed as Homo sapiens) |  |  |  |  |  |  |  |  |  |  | 1 | 1707 SFC | 1 | 1707 SFC | 0 | 0 SFC | 0 | 0 SFC |
| DRSGYSSPGSPGTPGS (DRSGYSSPG[pS]PG[pT]PGS; listed as Homo sapiens) [Tau 16-mer, start 193] |  |  |  |  |  |  |  |  |  |  | 1 | 1175 SFC | 2 | 1332 SFC | 0 | 0 SFC | 1 | 157 SFC |
| IDMVDZPQLATLADEV |  |  |  |  |  |  |  |  |  |  | 1 | 197 SFC | 5 | 1703 SFC | 2 | 563 SFC | 2 | 943 SFC |
| KTDHGAEIVYKSPVVS (listed as Homo sapiens) [Tau 16-mer, start 385] | 7.0 | 5.5 | 8.3% | 2437 SFC | 58.3% | 13336 SFC | 5.7% | 1679 SFC | 22.6 | 20142 SFC |  |  |  |  |  |  |  |  |
| GKVQIINKKLDLSNVQ (listed as Homo sapiens) [Tau 16-mer, start 273] | 2.5 | 3.3 | 20.0% | 5560 SFC | 50.0% | 18290 SFC | 8.6% | 1511 SFC | 37.7 | 30211 SFC |  |  |  |  |  |  |  |  |
| PAPKXPPSSGEPPKSG (PAPK[pT]PPSSGEPPKSG) | 1.8 | 2.4 | 19.2% | 6207 SFC | 34.6% | 14672 SFC | 12.2% | 1639 SFC | 49.1 | 42624 SFC | 9 | 14672 SFC | 26 | 42624 SFC | 12 | 21745 SFC | 5 | 6207 SFC |
